Data reported in patent US20090264392A1, “TREATING EOSINOPHILIC ESOPHAGITIS” (Meritage Pharma, Inc., priority 2008, published 2009).

Columns and labels:
[1] = test system: eosinophilic esophogitis (EoE) patients; assay: Example 1: budesonide gel therapy in patients with EoE; format: in vivo, human; conditions: tolerance comparison; seven patients who received fluticasone and budesonide therapy
Method: Eighteen patients were entered into the study (mean age 41; 5 females; 13 males). 16 patients had more than 15 eos/HPF on tissue obtained from the esophagus by biopsy during endoscopy. […] Both these patients responded completely to steroids. The mean serum eosinophil count was 215. Three patients had normal endoscopies. Six patients had strictures. […] Mucosal fragility was described in one patient. […] 14 patients underwent allergy testing.
The following symptoms were recorded: dysphagia (18/18), heartburn (9/18), regurgitation (4/18), asthma (5/18), allergic skin disease (1/18), seasonal allergies (8/18), proton pump inhibitor (PPI) medication use to treat esophageal reflux disease (10/18), and history of food impaction (15/18).
Budesonide gel (3 mg/10 mL Rincinol) was formulated as provided below. Preparation involved accurate weighing and measuring of the ingredients. Trituration of the powder into the Rincinol liquid was performed using geometric dilution techniques. The product was stirred using a stir plate, packaged, and labeled.
The standard dose was 3 mg twice a day for one week, which was then decreased to once a day for six weeks. 11 of 18 patients received standard dosing. Six of 18 patients received an alternate treatment regiment of 3 mg twice a day for a variable treatment period of time of greater than one week. The longest of which was eight months. […]

[2] = test system: patients with greater than 15 eos/HPF and solid food dysphagia (EoE); assay: Example 2: BRG therapy of eosinophilic esophagitis in adults; format: in vivo, human; conditions: 8 patients who had previously received fluticasone
Method: An oral gel combining budesonide with the mucosal adherent preparation Rincinol (the combination referred to as “BRG”) was compounded. Patients with abnormal Mayo dysphagia questionnaires underwent EGD with biopsies. 16 patients with greater than 15 eos/HPF and solid food dysphagia were enrolled in the study and treated with BRG. Patients were instructed to take BRG 3mg/10 cc BID. If patients noted marked improvement at one week, they were switched to once daily BRG for 6 weeks; otherwise they were continued on BID BRG for a total of 6 weeks. Dysphagia symptoms and BRG side effects over the last two weeks of treatment were assessed by personal interview. Symptoms were evaluated on a scale of dysphagia resolution: <25%, 25-49%, 50-74%, 75-99% or complete resolution. Those patients, who had previously utilized topical fluticasone for EoE, were asked to compare BRG vs topical fluticasone with respect to treatment effect and tolerance.

C[C@@H]1C[C@H]2[C@@H]3C[C@H](F)C4=CC(=O)C=C[C@]4(C)[C@@]3(F)[C@@H](O)C[C@]2(C)[C@@]1(O)C(=O)SCF [fluticasone]
patients who preferred fluticasone [1]: Two of the seven
patients who favored fluticasone (tolerance) [2]: 25%
